Source: article PMC11073428, “The activity of pyrazolo[4,3-e][1,2,4]triazine and pyrazolo[4,3-e]tetrazolo[1,5-b][1,2,4]triazine sulphonamide derivatives in monolayer and spheroid breast cancer cell cultures” (Journal of Enzyme Inhibition and Medicinal Chemistry, 2024)

Assays:
[1] = system: MDA-MB-231 breast cancer cells; experiment: Apoptosis, annexin V-FITC/PI flow cytometry, MDA-MB-231; type: cell-based, human; conditions: 24 h
Protocol: The analysis was performed using flow cytometry Apoptosis Detection Kit II (BD Biosciences, San Diego, CA) as described previously.

NF-κB in MCF-7 cells = experiment: Anti-NF-κB antibody flow cytometry, MCF-7; type: cell-based, human; conditions: 24 h, control 97.2 ± 0.6%
Protocol: (§1) To evaluate the molecular mechanism of induction of apoptosis of tested compounds, the level of p53, NF-κB, mTOR, Bax, and beclin-1 was measured using appropriate antibody according to the manufacturer’s instruction. In brief, tryspinised cells were centrifuged, then supernatant was discarded, and cells were suspended in 4% FA (formaldehyde). Prepared samples were incubated 15 min at RT. Following incubation, the 2.5 mL PBS was added to each sample and centrifuged. Then, supernatant was discarded, and cells were resuspended in 90% ice-cold methanol to perform permeabilisation and left for 1 h in ice. To remove methanol, cells were rinsed with excess PBS by centrifugation. Following centrifugation, the supernatant was discarded. Then, cells were resuspended in 100 µL of appropriate diluted (1:100 in PBS) antibody conjugate (p53 (7F5) Rabbit mAb – Alexa Fluor 488 Conjugate #5429 Cell Signalling Technology, Danvers, MA; NF-κB p65 (D14E12) XP Rabbit mAb – Alexa Fluor 647 Conjugate #8801 Cell Signalling Technology, Danvers, MA; mTOR (7C10) Rabbit mAB – Alexa Fluor 647 #5048 Cell Signalling Technology, Danvers, MA; FITC Anti-Bax antibody (T22-A) #ab139543, Abcam, Cambridge, UK) and incubated 1 h in the dark at RT. Afterwards, cells were washed by centrifugation in 2 mL of incubation buffer. Finally, supernatant was removed and 300 µL PBS was added to each sample and pipetted. […]

[2] = system: NF-κB in MDA-MB-231 cells; experiment: Anti-NF-κB antibody flow cytometry, MDA-MB-231; type: cell-based, human; conditions: 24 h
Protocol: as §1

Bax in MDA-MB-231 cells = experiment: Anti-Bax antibody flow cytometry, MDA-MB-231; type: cell-based, human; conditions: 24 h
Protocol: To evaluate the molecular mechanism of induction of apoptosis of tested compounds, the level of p53, NF-κB, mTOR, Bax, and beclin-1 was measured using appropriate antibody according to the manufacturer’s instruction. In brief, tryspinised cells were centrifuged, then supernatant was discarded, and cells were suspended in 4% FA (formaldehyde). Prepared samples were incubated 15 min at RT. Following incubation, the 2.5 mL PBS was added to each sample and centrifuged. Then, supernatant was discarded, and cells were resuspended in 90% ice-cold methanol to perform permeabilisation and left for 1 h in ice. To remove methanol, cells were rinsed with excess PBS by centrifugation. Following centrifugation, the supernatant was discarded. Then, cells were resuspended in 100 µL of appropriate diluted (1:100 in PBS) antibody conjugate (p53 (7F5) Rabbit mAb – Alexa Fluor 488 Conjugate #5429 Cell Signalling Technology, Danvers, MA; NF-κB p65 (D14E12) XP Rabbit mAb – Alexa Fluor 647 Conjugate #8801 Cell Signalling Technology, Danvers, MA; mTOR (7C10) Rabbit mAB – Alexa Fluor 647 #5048 Cell Signalling Technology, Danvers, MA; FITC Anti-Bax antibody (T22-A) #ab139543, Abcam, Cambridge, UK) and incubated 1 h in the dark at RT. Afterwards, cells were washed by centrifugation in 2 mL of incubation buffer. Finally, supernatant was removed and 300 µL PBS was added to each sample and pipetted. The analysis was performed by flow cytometry (BD FACSCanto II, Becton Dickinson Biosciences Systems, San Jose, CA) using FACSDiva software ver. 6.1.3.

p53 in MCF-7 cells = experiment: Anti-p53 antibody flow cytometry, MCF-7; type: cell-based, human; conditions: MCF-7, 0.25 µM and 0.5 µM, 24 h
Protocol: as §1

[3] = system: MCF-7 breast cancer cells; experiment: Autophagy Assay, Red, flow cytometry, MCF-7; type: cell-based, human
Protocol: (§2) The effect of novel compound 3b at 0.25 µM and 0.5 µM concentration on the induction of autophagy in MCF-7 and MDA-MB-231 pre-treated 1 h with or not autophagy inhibitor 3-MA for 1 h (3-methyladenine, Sigma-Aldrich, St. Louis, MO) at 1 mM concentration[29] was assessed by ICT’s Autophagy Assay, Red using a flow cytometer. The test was performed as previously. Briefly, cells were washed with PBS and suspended in 490 µL of PBS. To each probe, 10 µL of diluted Autophagy Probe, Red solution was added. Prepared samples were incubated at 37 °C for 60 min. Following incubation, cells were suspended in diluted cellular assay buffer and centrifuged. Then, supernatant was removed, and cells were resuspended in diluted cellular assay buffer and centrifuged again. This step was repeated three times. Finally, cell pellet was resuspended in 0.5 mL of diluted cellular assay buffer. The analysis was performed with a flow cytometer (excitation/emission 590 nm/620 nm).

[4] = system: MDA-MB-231 breast cancer cells; experiment: Autophagy Assay, Red, flow cytometry, MDA-MB-231; type: cell-based, human
Protocol: as §2

mTOR in MCF-7 cells = experiment: Anti-mTOR antibody flow cytometry, MCF-7; type: cell-based, human; conditions: MCF-7, 0.25 µM and 0.5 µM, 24 h
Protocol: as §1

mTOR in MDA-MB-231 cells = experiment: Anti-mTOR antibody flow cytometry, MDA-MB-231; type: cell-based, human; conditions: MDA-MB-231, 0.25 µM and 0.5 µM, 24 h
Protocol: as §1

beclin-1 in MCF-7 cells = experiment: Anti-beclin-1 antibody flow cytometry, MCF-7; type: cell-based, human; conditions: MCF-7, 0.5 µM, 24 h
Protocol: (§3) The fixation and permeabilisation were performed as described above. Cells were resuspended in 100 µL of diluted primary antibody (1:100 in PBS, anti-beclin 1 antibody (2A4) #ab114071, Abcam, Cambridge, UK) and incubated 30 min in the dark at RT. The cells were washed three times by centrifugation in PBS. Then to each probe, 100 µL of diluted fluorochrome-labelled secondary antibody (1:100 in PBS; goat anti-mouse IgG H&L – Alexa Fluor 488 #ab150113, Abcam, Cambridge, UK) was added and incubated 30 min in dark at RT. Then, cells were rinsed with 2.5 mL PBS. In the last step, supernatant was discarded and cells were resuspended in 300 µL PBS and pipetted. The analysis was carried out by flow cytometry.

[5] = system: beclin-1 in MDA-MB-231 cells; experiment: Anti-beclin-1 antibody flow cytometry, MDA-MB-231; type: cell-based, human; conditions: MDA-MB-231, 0.5 µM, 24 h
Protocol: as §3

In the case of Cc1nn(-c2ccc(S(=O)(=O)N[C@@H](CO)Cc3ccccc3)cc2)c2nn3nnnc3nc12 [Compound 3b, (R)-N-(1-hydroxy-3-phenylpropan-2-yl)-4-(7-methyl-5H-pyrazolo[4,3-e]tetrazolo[1,5-b][1,2,4]triazin-6-yl)benzenesulfonamide], the apoptotic cells ([1]; MDA-MB-231, 0.25 µM) was 11.8 ± 1.3%, the “early and late apoptotic cells” value ([1]; MDA-MB-231, 0.5 µM) was 29.5 ± 0.9% and the “cells with active NF-κB” value (NF-κB in MCF-7 cells; MCF-7, 0.25 µM) was 25.5 ± 4.5%. For the same compound, the “cells with active NF-κB” value (NF-κB in MCF-7 cells; MCF-7, 0.5 µM) was 19.8 ± 4.4%, the “cells with active NF-κB” value ([2]; MDA-MB-231, 0.25 µM) was 94.8 ± 0.6% and the “cells with active NF-κB” value ([2]; MDA-MB-231, 0.5 µM) was 89.6 ± 4.1%. The “cells with active Bax” value (Bax in MDA-MB-231 cells; MDA-MB-231, 0.25 µM) was 6.3 ± 0.4%, the “cells with active Bax” value (Bax in MDA-MB-231 cells; MDA-MB-231, higher concentration (0.5 µM)) was 16.9 ± 3.7% and the “effect on p53 (in words)” value (p53 in MCF-7 cells) was “activates p53”. For the same compound, the autophagic cells ([3]; MCF-7, 0.5 µM, 24 h) was 30 ± 2.1%, the “autophagic cells with 3-MA relative to 3b alone (in words)” value ([3]; MCF-7, 3b 0.5 µM + 3MA vs 3b 0.5 µM) was “one and a half times less autophagic cells” and the “autophagic cells (rate of autophagosomes)” value ([4]; MDA-MB-231, 0.5 µM, 24 h) was 47.1 ± 0.6%. The “autophagic cells in presence of 3-MA” value ([4]; MDA-MB-231, 3b 0.5 µM + 3-MA (1 mM, 1 h pre-treatment)) was 25.9 ± 4.7%, the “effect on cells with active mTOR (in words)” value (mTOR in MCF-7 cells) was “decrease in the number of cells with active mTOR” and the “effect on cells with active mTOR (in words)” value (mTOR in MDA-MB-231 cells) was “decrease in the number of cells with active mTOR”. For the same compound, the “cells with active beclin-1” value (beclin-1 in MCF-7 cells) was 13.9 ± 2.6%, the “cells with active beclin-1” value [5] was 8.1 ± 0.1% and the melting point was 170 to 172 °C.
